Ki data for seven compounds are collected here from ChEMBL document CHEMBL1141101, “Design, synthesis, and biological activity of m-tyrosine-based 16- and 17-membered macrocyclic inhibitors of hepatitis C virus NS3 serine protease” (J Med Chem, 2005).

Numbered stars: 1 amine (or outer) side, 2 acyl side, 3 side chain; on linkers, the order of the positions; unused ones are H or OH. Square brackets hold non-standard residues; d marks the D form. Peptide text beside a SMILES is read from it. * marks the point of attachment. Phe(3-CF3) = N[C@@H](Cc1cccc(C(F)(F)F)c1)C(=O)O; X1 = CCCC(N[*:1])C(=O)C(=O)[*:2]; Chg = N[C@H](C(=O)O)C1CCCCC1; Phg = N[C@H](C(=O)O)c1ccccc1; Boc = CC(C)(C)OC(=O)*

What is called Ki is a measure of affinity in units of concentration, obtained from inhibition or displacement. A high value points to lower affinity.

The target of the assay is NS3 (Hepatitis C virus, UniProt A3EZJ3). As to the kind of experiment: Binding affinity for HCV NS3 protease measured by HCV continuous assay. The arrangement: species or system Hepacivirus hominis.
NS3, sequence (A3EZJ3 whole entry): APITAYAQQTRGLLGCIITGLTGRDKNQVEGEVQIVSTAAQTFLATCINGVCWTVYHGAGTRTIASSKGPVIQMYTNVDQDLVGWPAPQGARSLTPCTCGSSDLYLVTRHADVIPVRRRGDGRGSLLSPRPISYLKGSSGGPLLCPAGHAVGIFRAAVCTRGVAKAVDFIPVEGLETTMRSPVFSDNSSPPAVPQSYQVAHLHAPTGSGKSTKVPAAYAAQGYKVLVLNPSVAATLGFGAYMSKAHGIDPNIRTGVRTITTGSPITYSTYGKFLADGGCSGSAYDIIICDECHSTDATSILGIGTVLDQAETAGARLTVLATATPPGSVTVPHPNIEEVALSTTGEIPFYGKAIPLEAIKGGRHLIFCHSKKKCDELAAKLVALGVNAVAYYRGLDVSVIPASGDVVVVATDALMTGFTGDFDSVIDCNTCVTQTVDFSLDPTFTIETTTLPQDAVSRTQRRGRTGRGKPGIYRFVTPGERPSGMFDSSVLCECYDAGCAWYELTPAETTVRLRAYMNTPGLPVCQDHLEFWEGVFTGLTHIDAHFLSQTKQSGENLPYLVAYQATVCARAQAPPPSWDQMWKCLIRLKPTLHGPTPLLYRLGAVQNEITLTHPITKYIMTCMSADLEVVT
`CCCC(NC(=O)[C@@H]1Cc2cccc(c2)OCCCCCCC(=O)N[C@@H](C2CCCCC2)C(=O)N1)C(=O)C(=O)NCC(=O)N[C@H](C(=O)NC)c1ccccc1` (some centres not stated) had an inhibition constant Ki of 170 nM.
As to `CCCC(NC(=O)[C@@H]1Cc2cccc(c2)OCCCCCC(=O)N[C@@H](C2CCCCC2)C(=O)N1)C(=O)C(=O)NCC(=O)N[C@H](C(=O)O)c1ccccc1` (some centres not stated), the affinity corresponds to a Ki of 1200 nM.
Turning to `CCCC(NC(=O)[C@@H]1Cc2cccc(c2)OCCCCCC(=O)N[C@@H](C2CCCCC2)C(=O)N1)C(=O)C(=O)NCC(=O)N[C@H](C(=O)OC(C)(C)C)c1ccccc1` (some centres not stated), the Ki is over 8900 nM.
With `CCCC(NC(=O)[C@H](Cc1cccc(C(F)(F)F)c1)NC(=O)[C@@H](NC(=O)OC(C)(C)C)C1CCCCC1)C(=O)C(=O)NCC(=O)N[C@H](C(N)=O)c1ccccc1` (some centres not stated) (Boc-[Chg][Phe(3-CF3)][X1]G[Phg]-NH2) the figure was 8000 nM; with `CCCC(NC(=O)[C@@H]1Cc2cccc(c2)OCCCCCCC(=O)N[C@@H](C2CCCCC2)C(=O)N1)C(=O)C(=O)NCC(=O)N[C@H](C(=O)O)c1ccccc1` (some centres not stated), 160 nM; with `CCCC(NC(=O)[C@@H]1Cc2cccc(c2)OCCCCCCC(=O)N[C@@H](C2CCCCC2)C(=O)N1)C(=O)C(=O)NCC(=O)N[C@H](C(=O)OC(C)(C)C)c1ccccc1` (some centres not stated), 5500 nM.
In turn, `CCCC(NC(=O)[C@@H]1Cc2cccc(c2)OCCCCCCC(=O)N[C@@H](C2CCCCC2)C(=O)N1)C(=O)C(=O)NCC(=O)N[C@H](C(=O)N(C)C)c1ccccc1` (some centres not stated) yielded a Ki of 310 nM.
